# Experimental data: patent publication US12145913B2, “Inhibition of Olig2 activity” (Curtana Pharmaceuticals, Inc., priority 2016, dated 2024)
# System: GBM8 human glioblastoma cells
# Experiment: GBM8 viability assay (Cell Titer Glo)
# Type: cell-based
# Conditions: 72 h, Table 1, 3 days incubation, luminescence
# Protocol: Cell culture medium was prepared from a NSA proliferation kit (Neurocult) and NeuroCult supplements (Stemcell Tech Cat. #05751) and treated with 20 μL of 10 μg/mL rh EGF, 10 μL of 10 μg/mL rh bFGF and 10 μL of 0.2% Heparin. In this medium, human glioblastoma cells were cultured in ultra-low attachment tissue culture flasks until 1×10^6 cells ml was achieved (GBM4 and GBM8 are distinct neurosphere cell cultures derived from these human patient tissues). GBM4 and GBM8 cells were dissociated and 10 mL of media containing 4000 human glioblastoma cells per 90 μL were transferred to an ultra-low binding 96-well plate and incubated at 37° C. overnight. On the following day, 10 μL of a 1% DMSO solution of test compound in assay medium was added to wells containing the cell suspension and the mixture incubated at 37° C. for 3 days. At this time, the plate was removed from the incubator and allowed to reach room temperature. After about 30 minutes, 50 μL of Cell Titer Glo solution was added to each well and the plate shaken for 1 minute at low speed. After 10 minutes luminescence was recorded using a Tecan Safire2 reader.
# Reduction in luminescence compared to DMSO only control wells was used to determine the percentage inhibition of cell growth. IC50s were calculated using the % inhibition of luminescence for serial dilutions of compounds fitted to a 4-parameter fit within the Prism (San Diego) curve fitting program. Tables 1 (compounds 3-188) and 2 (compounds 190-212) show the GBM4 IC50 and GBM8 IC50 for compounds described herein.
row,IC50 [nM],Structure (SMILES)
1,5000 to 30000,Cc1cc(NCCc2ccccn2)nc(NC(=O)Nc2ccc3ccccc3c2)n1 [Compound 15]
2,500 to 5000,"Cc1cc(NCCCN(C)C)nc(NC(=O)Nc2cccc(Oc3ccccc3)c2)n1 [Compound 128, 1-(4-((3-(dimethylamino)propyl)amino)-6-methylpyrimidin-2-yl)-3-(3-phenoxyphenyl)urea]"
3,500 to 5000,"Cc1cc(NCCN)nc(NC(=O)Nc2ccc3ncccc3c2)n1 [Compound 107, 1-(4-((2-aminoethyl)amino)-6-methylpyrimidin-2-yl)-3-(quinolin-6-yl)urea]"
4,< 500,Cc1cc(NCCN(C)C)nc(NC(=O)Nc2ccc3ccccc3c2)n1 [Compound 6]
5,500 to 5000,"Cc1cc(NCCN(C)C)nc(NC(=O)Nc2ccc3cnccc3c2)n1 [Compound 51, 1-(4-((2-(dimethylamino)ethyl)amino)-6-methylpyrimidin-2-yl)-3-(isoquinolin-6-yl)urea]"
6,500 to 5000,"CC(C)c1cc(NO)nc(NC(=O)Nc2ccc3ccccc3c2)n1 [Compound 187, 1-(4-(hydroxyamino)-6-isopropylpyrimidin-2-yl)-3-(naphthalen-2-yl)urea]"
7,500 to 5000,"Cc1cc(NCCN)nc(NC(=O)Nc2ccc3cnccc3c2)n1 [Compound 52, 1-(4-((2-aminoethyl)amino)-6-methylpyrimidin-2-yl)-3-(isoquinolin-6-yl)urea]"
8,< 500,"Cc1cc(NCCC(N)=O)nc(NC(=O)Nc2ccc3ccccc3c2)n1 [Compound 26, 3-((6-methyl-2-(3-(naphthalen-2-yl)ureido)pyrimidin-4-yl)amino)propanamide]"
9,500 to 5000,"Cc1cc(NCCCN)nc(NC(=O)Nc2ccc3cnccc3c2)n1 [Compound 53, 1-(4-((3-aminopropyl)amino)-6-methylpyrimidin-2-yl)-3-(isoquinolin-6-yl)urea]"
10,500 to 5000,"CC(=O)NCCCNc1cc(C)nc(NC(=O)Nc2ccc3ncccc3c2)n1 [Compound 109, N-(3-((6-methyl-2-(3-(quinolin-6-yl)ureido)pyrimidin-4-yl)amino)propyl)acetamide]"
11,< 500,Cc1cc(NCC(O)CO)nc(NC(=O)Nc2ccc3ccccc3c2)n1 (centres unmarked) [Compound 18]
12,< 500,Cc1cc(NCCO)nc(NC(=O)Nc2ccc3ccccc3c2)n1 [Compound 8]
13,< 500,"Cc1cc(NCCN)nc(NC(=O)Nc2ccc3ccccc3c2)n1 [Compound 5, 1-(4-((2-aminoethyl)amino)-6-methylpyrimidin-2-yl)-3-(naphthalen-2-yl)urea]"
14,< 500,CCNc1cc(C)nc(NC(=O)Nc2ccc3cnccc3c2)n1 [Compound 54]
15,< 500,Cc1cc(NCCCc2ccccn2)nc(NC(=O)Nc2ccc3ccccc3c2)n1 [Compound 16]
16,500 to 5000,"CONc1cc(C)nc(NC(=O)Nc2ccc(OC(F)(F)F)cc2)n1 [Compound 146, 1-(4-(methoxyamino)-6-methylpyrimidin-2-yl)-3-(4-(trifluoromethoxy)phenyl)urea]"

# Second part, the molecule before the results:
row,Structure (SMILES),IC50 [nM]
1,"CC(=O)NCCCNc1cc(C)nc(NC(=O)Nc2ccc3ccccc3n2)n1 [Compound 100, N-(3-((6-methyl-2-(3-(quinolin-2-yl)ureido)pyrimidin-4-yl)amino)propyl)acetamide]",500 to 5000
2,"Cc1cc(NCCNS(C)(=O)=O)nc(NC(=O)Nc2ccc3occc3c2)n1 [Compound 86, N-(2-((2-(3-(benzofuran-5-yl)ureido)-6-methylpyrimidin-4-yl)amino)ethyl)methanesulfonamide]",< 500
3,"CC(=O)NCCNc1cc(C)nc(NC(=O)Nc2ccc3ccccc3n2)n1 [Compound 101, N-(2-((6-methyl-2-(3-(quinolin-2-yl)ureido)pyrimidin-4-yl)amino)ethyl)acetamide]",500 to 5000
4,"Cc1cc(NCCN(C)C)nc(NC(=O)Nc2ccc3ncccc3c2)n1 [Compound 106, 1-(4-((2-(dimethylamino)ethyl)amino)-6-methylpyrimidin-2-yl)-3-(quinolin-6-yl)urea]",500 to 5000
5,"Cc1cc(NCCNS(C)(=O)=O)nc(NC(=O)Nc2cc3ccccc3cn2)n1 [Compound 93, N-(2-((2-(3-(isoquinolin-3-yl)ureido)-6-methylpyrimidin-4-yl)amino)ethyl)methanesulfonamide]",500 to 5000
6,"O=C(Nc1ccc2ccccc2c1)Nc1nccc(NO)n1 [Compound 161, 1-(4-(hydroxyamino)pyrimidin-2-yl)-3-(naphthalen-2-yl)urea]",500 to 5000
7,"CCNc1cc(C)nc(NC(=O)Nc2ccc(Oc3ccccc3)cc2)n1 [Compound 134, 1-(4-(ethylamino)-6-methylpyrimidin-2-yl)-3-(4-phenoxyphenyl)urea]",< 500
8,"Cc1cc(NCCCN)nc(NC(=O)Nc2ccc(C(=O)c3ccccc3)cc2)n1 [Compound 155, 1-(4-((3-aminopropyl)amino)-6-methylpyrimidin-2-yl)-3-(4-benzoylphenyl)urea]",< 500
9,"Cc1cc(NCCCN(C)C)nc(NC(=O)Nc2ccc3occc3c2)n1 [Compound 80, 1-(benzofuran-5-yl)-3-(4-((3-(dimethylamino)propyl)amino)-6-methylpyrimidin-2-yl)urea]",< 500
10,"Cc1cc(NCCN)nc(NC(=O)Nc2ccc3ccccc3n2)n1 [Compound 98, 1-(4-((2-aminoethyl)amino)-6-methylpyrimidin-2-yl)-3-(quinolin-2-yl)urea]",500 to 5000
11,"Cc1cc(NCCCNS(C)(=O)=O)nc(NC(=O)Nc2ccc3ccccc3c2)n1 [Compound 37, N-(3-((6-methyl-2-(3-(naphthalen-2-yl)ureido)pyrimidin-4-yl)amino)propyl)methanesulfonamide]",< 500
12,CNc1cc(C)nc(NC(=O)Nc2ccc3cnccc3c2)n1 [Compound 55],< 500
13,CNc1cc(C)nc(NC(=O)Nc2ccc3ccccc3c2)n1 [Compound 20],< 500
14,"Cc1cc(NCCc2ccc[nH]2)nc(NC(=O)Nc2ccc3ccccc3c2)n1 [Compound 24, 1-(4-((2-(1H-pyrrol-2-yl)ethyl)amino)-6-methylpyrimidin-2-yl)-3-(naphthalen-2-yl)urea]",< 500
15,"Cc1cc(NCCCN(C)C)nc(NC(=O)Nc2ccc(OC(F)(F)F)c(Cl)c2)n1 [Compound 149, 1-(3-chloro-4-(trifluoromethoxy)phenyl)-3-(4-((3-(dimethylamino)propyl)amino)-6-methylpyrimidin-2-yl)urea]",< 500
16,"CNCCCNc1cc(C)nc(NC(=O)Nc2ccc3ccccc3c2)n1 [Compound 31, 1-(4-methyl-6-((3-(methylamino)propyl)amino)pyrimidin-2-yl)-3-(naphthalen-2-yl)urea]",< 500
17,"Cc1cc(NCCCN(C)C)nc(NC(=O)Nc2ccc3cnccc3c2)n1 [Compound 50, 1-(4-((3-(dimethylamino)propyl)amino)-6-methylpyrimidin-2-yl)-3-(isoquinolin-6-yl)urea]",< 500
18,"Cc1cc(NCCNS(C)(=O)=O)nc(NC(=O)Nc2ccc(Cl)c(Cl)c2)n1 [Compound 123, N-(2-((2-(3-(3,4-dichlorophenyl)ureido)-6-methylpyrimidin-4-yl)amino)ethyl)methanesulfonamide]",< 500
19,CCCCNc1cc(C)nc(NC(=O)Nc2ccc3cnccc3c2)n1 [Compound 56],< 500
20,"Cc1cc(NCCCN(C)C)nc(NC(=O)Nc2ccc3ccccc3n2)n1 [Compound 96, 1-(4-((3-(dimethylamino)propyl)amino)-6-methylpyrimidin-2-yl)-3-(quinolin-2-yl)urea]",500 to 5000
21,"CC(=O)NCCCNc1cc(C)nc(NC(=O)Nc2ccc3cnccc3c2)n1 [Compound 66, N-(3-((2-(3-(isoquinolin-6-yl)ureido)-6-methylpyrimidin-4-yl)amino)propyl)acetamide]",< 500
22,"Cc1cc(NCCCN)nc(NC(=O)Nc2ccc3ccncc3c2)n1 [Compound 117, 1-(4-((3-aminopropyl)amino)-6-methylpyrimidin-2-yl)-3-(isoquinolin-7-yl)urea]",500 to 5000
23,"Cc1cc(NCCCN(C)C)nc(NC(=O)Nc2cccc(-c3ccccc3)c2)n1 [Compound 131, 1-([1,1′-biphenyl]-3-yl)-3-(4-((3-(dimethylamino)propyl)amino)-6-methylpyrimidin-2-yl)urea]",500 to 5000
24,"Cc1cc(NCCCN(C)C)nc(NC(=O)Nc2ccc3ncccc3c2)n1 [Compound 105, 1-(4-((3-(dimethylamino)propyl)amino)-6-methylpyrimidin-2-yl)-3-(quinolin-6-yl)urea]",500 to 5000
25,"Cc1cc(NCCC(=O)N(C)C)nc(NC(=O)Nc2ccc3cnccc3c2)n1 [Compound 76, 3-((2-(3-(isoquinolin-6-yl)ureido)-6-methylpyrimidin-4-yl)amino)-N,N-dimethylpropanamide]",500 to 5000
26,"Cc1cc(NCCN(C)C)nc(NC(=O)Nc2ccc(OC(C)C)cc2)n1 [Compound 137, 1-(4-((2-(dimethylamino)ethyl)amino)-6-methylpyrimidin-2-yl)-3-(4-isopropoxyphenyl)urea]",< 500
27,"CC(=O)NCCNc1cc(C)nc(NC(=O)Nc2ccc3occc3c2)n1 [Compound 84, N-(2-((2-(3-(benzofuran-5-yl)ureido)-6-methylpyrimidin-4-yl)amino)ethyl)acetamide]",< 500

# Same assay, conditions: 72 h, Table 2, 3 days incubation, luminescence
row,IC50 [nM],Structure (SMILES)
1,500 to 5000,"CC(C)c1cc(NCCCN(C)C)nc(NC(=O)Nc2ccc(OC(F)(F)F)cc2)n1 [Compound 194, 1-(4-((3-(dimethylamino)propyl)amino)-6-isopropylpyrimidin-2-yl)-3-(4-(trifluoromethoxy)phenyl)urea]"
